Assay results published in PubChem BioAssay (NCI).
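Exposure lasted 48 hours, with cells grown in 96-well plates and compounds tested at five concentrations. GI50 is the concentration that inhibits growth by half. TGI is the concentration that stops growth completely.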

Columns and labels:
Assay in all cases: NCI anticancer screen, dose series, 48 h
[1] = test system: CCRF-CEM leukemia
[2] = test system: DU-145 prostate
[3] = test system: EKVX NSCLC
[4] = test system: HS 578T breast
[5] = test system: HT29 colon
[6] = test system: M14 melanoma
[7] = test system: OVCAR-8 ovarian
[8] = test system: T-47D breast
[9] = test system: U251 CNS
[10] = test system: UACC-257 melanoma

Row | SMILES | GI50 [1] | TGI [1] | GI50 [2] | TGI [2] | GI50 [3] | TGI [3] | GI50 [4] | TGI [4] | GI50 [5] | TGI [5] | GI50 [6] | TGI [6] | GI50 [7] | TGI [7] | GI50 [8] | TGI [8] | GI50 [9] | TGI [9] | GI50 [10] | TGI [10]
1 | COC(=O)C(Br)(C(=O)OC)C(Br)C(Br)C(Br)c1ccccc1 (stereo not drawn) | 2 µM | 7.21 µM | 2.31 µM | 5.71 µM | 13.9 µM | 31.9 µM | 6.25 µM | 15 µM | 1.8 µM | 3.34 µM | 2.47 µM | 6.2 µM | 3.03 µM | 8.15 µM | 2.47 µM | 8.06 µM | 3.99 µM | 10.6 µM | 1.88 µM | 4.4 µM
2 | C=C(C)[C@@H]1CC[C@]2(COC(=O)c3ccccc3C(=O)O)CC[C@]3(C)[C@H](CC[C@@H]4[C@@]5(C)CC[C@H](OC(=O)c6ccccc6C(=O)O)C(C)(C)[C@@H]5CC[C@]43C)[C@@H]12 | 30.5 µM | > 100 µM | 32.8 µM | > 100 µM | 37.4 µM | > 100 µM | 26.4 µM | > 100 µM | 46 µM | > 100 µM | 44.9 µM | > 100 µM | 42.6 µM | > 100 µM | 19.7 µM | 75.8 µM | 23.1 µM | 77.7 µM | 71.3 µM | > 100 µM
3 | CSc1ccc(NC(=O)CCl)cc1 | – | > 10 µM | – | > 10 µM | – | > 10 µM | – | > 10 µM | – | > 10 µM | – | 3.73 µM | – | > 10 µM | – | > 10 µM | – | > 10 µM | – | > 10 µM
4 | COc1ccc2c3c1OC1C4(CCC5C(C2)N(CC2CC2)CCC351)OCCO4 (stereo not drawn) | – | > 100 µM | – | > 100 µM | – | > 100 µM | – | > 100 µM | – | > 100 µM | – | > 100 µM | – | > 100 µM | – | > 100 µM | – | > 100 µM | – | > 100 µM
5 | COc1ccc(C(=O)c2cc(C)c(OC)c(C)c2)c(OC)c1OC(=O)C(Cl)Cl | 0.0386 µM | > 100 µM | 0.0377 µM | 4.8 µM | 0.321 µM | > 100 µM | 0.0294 µM | 73.4 µM | 3.44 µM | > 49.8 µM | 0.0229 µM | > 100 µM | 0.0456 µM | > 100 µM | 6.37 µM | > 100 µM | 0.0468 µM | > 100 µM | 25.6 µM | > 100 µM
6 | O=CCC(O)C(O)C(O)CO (stereo not drawn) | > 100 µM | > 100 µM | > 100 µM | > 100 µM | > 100 µM | > 100 µM | > 100 µM | > 100 µM | > 100 µM | > 100 µM | > 100 µM | > 100 µM | > 100 µM | > 100 µM | > 100 µM | > 100 µM | > 100 µM | > 100 µM | 55.6 µM | > 100 µM
7 | COc1cc2c3c(n(CCCN=[N+]=[N-])c(=O)c2cc1OC)-c1ccc(NC(C)=O)cc1C3=O | > 50 µM | > 50 µM | > 50 µM | > 50 µM | > 50 µM | > 50 µM | > 50 µM | > 50 µM | > 50 µM | > 50 µM | > 50 µM | > 50 µM | > 50 µM | > 50 µM | > 50 µM | > 50 µM | > 50 µM | > 50 µM | > 50 µM | > 50 µM
8 | CC(NNC(=S)N1CCN(c2ccccn2)CC1)c1cccc[n+]1[O-] (stereo not drawn) | – | 20.5 µM | – | > 100 µM | – | > 100 µM | – | > 100 µM | – | > 100 µM | – | > 100 µM | – | > 100 µM | – | > 100 µM | – | > 100 µM | – | > 100 µM
9 | C=C(C)C1Cc2cc(C(C)=O)ccc2O1 (stereo not drawn) | – | > 100 µM | – | > 100 µM | – | > 100 µM | – | > 100 µM | – | > 100 µM | – | > 100 µM | – | > 100 µM | – | > 100 µM | – | > 100 µM | – | > 100 µM
10 | O=C(O)c1ccccc1C(=O)Nc1cc2c(cc1Br)-c1ccccc1C2=O | – | > 100 µM | – | > 100 µM | – | > 100 µM | – | > 100 µM | – | > 100 µM | – | > 100 µM | – | > 100 µM | – | > 100 µM | – | > 100 µM | – | > 100 µM
11 | COc1cc(-c2cn(-c3ccc(F)cc3)c(=O)[nH]2)cc(OC)c1OC | > 100 µM | > 100 µM | > 100 µM | > 100 µM | > 100 µM | > 100 µM | 50.9 µM | > 100 µM | > 100 µM | > 100 µM | > 100 µM | > 100 µM | > 100 µM | > 100 µM | > 100 µM | > 100 µM | > 100 µM | > 100 µM | > 100 µM | > 100 µM
12 | NCCNc1nc2ccc(F)cc2c2c(=O)c3cc(F)ccc3sc12 | 2.11 µM | 4.54 µM | 1.9 µM | 3.39 µM | 1.65 µM | 3.95 µM | 3.21 µM | 18.4 µM | 1.61 µM | 3.06 µM | 2.77 µM | 8.65 µM | 2.06 µM | 4.6 µM | 1.72 µM | 3.72 µM | 1.76 µM | 3.24 µM | 2.69 µM | 7.8 µM
13 | O=C1c2ccccc2-c2c1c1ccc([N+](=O)[O-])cc1c(=O)n2CCN1CCOCC1 | 20.1 µM | > 100 µM | 61 µM | > 100 µM | > 100 µM | > 100 µM | > 100 µM | > 100 µM | > 100 µM | > 100 µM | > 100 µM | > 100 µM | > 100 µM | > 100 µM | 78.4 µM | > 100 µM | 49.6 µM | > 100 µM | – | –
14 | Fc1cccc(-c2nc(-c3c[nH]c4ncccc34)cs2)c1 | > 100 µM | > 100 µM | > 100 µM | > 100 µM | 2.46 µM | > 100 µM | 2.95 µM | 16.7 µM | > 100 µM | > 100 µM | 5.61 µM | > 100 µM | 42.4 µM | > 100 µM | 2.34 µM | > 100 µM | 25 µM | > 100 µM | > 100 µM | > 100 µM
